Like-named read-outs stand apart in the source and are kept apart here.
What was measured:
human AChE = molecular target: T1, human AChE (Homo sapiens, UniProt P22303); experiment: Reversible inhibition of human AChE, Ellman method with ATCh, Hunter-Downs analysis; format: biochemical; set-up: key to AChE type of inhibition: c, n and m stands for competitive, noncompetitive and mixed type of inhibition; c, n and m stands for competitive, noncompetitive and mixed type of inhibition; c, n and m stands for competitive, noncompetitive and mixed type of inhibition; conditions: for Ki: enzyme-inhibitor dissociation constant ± standard error, ATCh 0.050–0.50 mM, pH 7.4, 25 °C; for AChE Ks: enzyme-substrate (ATCh) dissociation constant derived from the inhibition kinetics with the compound; for AChE type of inhibition: symbol in brackets after Ki
T1 construct: gift of Dr. F. Nachon (Département de Toxicologie, Armed Forces Biomedical Research Institute, France)
T1 sequence (P22303 32-614): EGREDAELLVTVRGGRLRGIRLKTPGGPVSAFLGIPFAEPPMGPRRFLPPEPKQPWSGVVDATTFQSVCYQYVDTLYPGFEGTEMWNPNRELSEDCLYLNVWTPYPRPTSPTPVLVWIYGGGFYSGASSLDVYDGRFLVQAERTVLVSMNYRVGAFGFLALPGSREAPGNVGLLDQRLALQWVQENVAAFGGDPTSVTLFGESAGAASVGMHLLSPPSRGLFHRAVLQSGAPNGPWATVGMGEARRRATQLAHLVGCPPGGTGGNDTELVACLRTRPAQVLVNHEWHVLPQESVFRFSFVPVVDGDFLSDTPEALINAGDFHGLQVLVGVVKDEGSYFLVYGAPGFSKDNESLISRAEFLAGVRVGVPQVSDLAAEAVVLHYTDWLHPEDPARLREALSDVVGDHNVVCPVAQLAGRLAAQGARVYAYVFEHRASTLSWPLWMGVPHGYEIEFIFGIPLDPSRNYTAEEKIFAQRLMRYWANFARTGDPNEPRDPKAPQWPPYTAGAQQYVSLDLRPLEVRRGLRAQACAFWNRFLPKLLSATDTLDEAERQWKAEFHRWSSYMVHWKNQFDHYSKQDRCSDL
Method: (§1) Purified human BChE and recombinant human AChE were kindly provided by Dr. F. Nachon (Département de Toxicologie, Armed Forces Biomedical Research Institute, France). The concentration of enzymes (BChE: 5.6 μM; AChE: 0.20 μM) was determined as described previously. The concentrated stocks of enzymes were diluted in a phosphate sodium buffer 0.1 M (pH 7.4) containing 0.1% BSA.
(§2) Enzyme activities were measured spectrophotometrically by Ellman method at 412 nm using 0.30 mM DTNB as thiol reagent and ATCh (0.050–0.50 mM) as substrate in 0.1 M phosphate buffer, pH 7.4 [29, 30]. For the inhibition, the reaction mixture also contained cinchonidines or cinchonines (final concentrations 0.020–200 μM, depending on compound). In the case of compounds CD-(pCl) and CN-(pCl), the final content of DMSO was the same in enzyme activity measurement and in inhibition measurements, up to 0.32%. No side interactions of tested compounds with ATCh or DTNB were detected. Measurements were done at 25 °C on a Tecan Infinite M200Pro plate reader (Austria).
(§3) The reversible inhibition of BChE and AChE by cinchonines and cinchonidines was measured by determining the decrease of enzyme activity towards ATCh (0.050–0.50 mM) in their presence. The activities of the enzymes were measured at different substrate concentrations ([S]) in the absence (v0) and presence (vi) of given cinchonines and cinchonidines concentration ([I]) selected to inhibit the enzymes for 20–80%. At least three concentrations of inhibitors for each substrate concentration were used in at least two experiments. The apparent dissociation inhibition constant (Ki,app) was calculated using the Hunter-Downs equation and the linear regression analysis: Ki,app=vi/v0−vi⋅[I]=K(I)+K(I)/K(S)⋅[S] where y-intercept determines the enzyme-inhibitor dissociation constants (K(I)), while x-intercept determines the enzyme-substrate dissociation constant, K(S). The equation was used with the assumption that the substrate, due to relatively low substrate concentrations used in experiments, binds only to the catalytic site, while inhibitor can bind to both sites catalytic and peripheral site. In other words, if the inhibitor competes with substrate for binding to the catalytic site of the enzyme, Ki,app proportionally depend on the substrate concentration. […] The curve means that the inhibitor binds not only to the catalytic or peripheral site but also to intermediates of Michaelis type of the enzyme-substrate complex.

human BChE = molecular target: T2, human BChE (Homo sapiens, UniProt P06276); experiment: Reversible inhibition of human BChE, Ellman method with ATCh, Hunter-Downs analysis; format: biochemical; set-up: key to BChE type of inhibition: c, n and m stands for competitive, noncompetitive and mixed type of inhibition; c, n and m stands for competitive, noncompetitive and mixed type of inhibition; c, n and m stands for competitive, noncompetitive and mixed type of inhibition; conditions: for BChE Ks: enzyme-substrate (ATCh) dissociation constant derived from the inhibition kinetics with the compound; for Ki(AChE)/ Ki (BChE): inhibition selectivity, ratio of Ki constants for AChE and BChE; for BChE inhibition potency compared to CD-Met: fold more potent than CD-Met
T2 construct: gift of Dr. F. Nachon (Département de Toxicologie, Armed Forces Biomedical Research Institute, France)
T2 sequence (P06276 29-602): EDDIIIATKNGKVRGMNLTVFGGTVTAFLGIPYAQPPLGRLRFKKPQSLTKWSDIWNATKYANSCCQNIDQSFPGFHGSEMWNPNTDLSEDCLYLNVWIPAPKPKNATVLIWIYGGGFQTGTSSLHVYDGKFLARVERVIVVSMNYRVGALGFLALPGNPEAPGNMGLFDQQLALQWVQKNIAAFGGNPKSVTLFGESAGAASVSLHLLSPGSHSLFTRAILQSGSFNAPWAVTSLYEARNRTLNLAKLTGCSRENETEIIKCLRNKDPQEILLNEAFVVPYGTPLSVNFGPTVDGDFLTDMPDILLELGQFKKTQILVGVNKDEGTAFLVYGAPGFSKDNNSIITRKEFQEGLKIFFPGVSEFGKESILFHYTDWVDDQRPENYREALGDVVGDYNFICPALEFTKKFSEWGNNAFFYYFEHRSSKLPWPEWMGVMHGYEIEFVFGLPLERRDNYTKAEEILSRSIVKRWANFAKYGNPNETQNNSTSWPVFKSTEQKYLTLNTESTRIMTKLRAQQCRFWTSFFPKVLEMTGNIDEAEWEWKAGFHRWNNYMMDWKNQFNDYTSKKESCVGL
Method: as §1, §2, §3

[1] = enzyme-inhibitor dissociation constant ± standard error, ATCh 0.050–0.50 mM, pH 7.4, 25 °C
[2] = ratio of Ki of cinchonine to Ki of the pseudo-enantiomeric cinchonidine

| SMILES | AChE affinity lower than for the highest-affinity compounds (human AChE; compared to CD-(mNO2) and CD-(mCH3)) | Ki (human AChE) [µM] | Ki (human BChE; [1]) [nM] | BChE Ks (human BChE) [mM] | Ki(AChE)/ Ki (BChE) (human BChE) | BChE type of inhibition (human BChE; symbol in brackets after Ki) | AChE Ks (human AChE) [mM] | AChE type of inhibition (human AChE) | BChE inhibition potency compared to CD-Met (human BChE) | AChE stereoselectivity Ki(CN/CD) (human AChE; [2]) | Ki (human BChE) [nM] | BChE binding preference para- over meta-positioned substituent (human BChE; para compound compared to meta compound) [times] | BChE stereoselectivity Ki(CN/CD) (human BChE; [2]) | BChE type of inhibition (human BChE; substrate concentrations higher than 0.35 mM, deviation from linearity in Hunter-Downs plot) | BChE affinity lower compared to CD-(pBr) (human BChE; fold lower affinity than CD-(pBr)) |
| --- | --- | --- | --- | --- | --- | --- | --- | --- | --- | --- | --- | --- | --- | --- | --- |
| C=C[C@H]1CN2CC[C@H]1C[C@H]2[C@H](O)c1ccnc2ccccc12 [CD, cinchonidine, reference compound] | about 160 times | > 400 | 28000 ± 4000 | 0.25 ± 0.05 | ~14 | c | – | – | – | – | – | – | – | – | – |
| C=CC1C[N+]2(Cc3cccc(Br)c3)CCC1CC2C(O)c1ccnc2ccccc12 (stereo not shown) [CD-(mBr), N-(3-bromobenzyl) cinchonidinium bromide] | – | 20 ± 1 | 600 ± 30 | 0.50 ± 0.05 | 33 | m | 0.91 ± 0.08 | m | 44 times | – | – | – | – | – | – |
| C=CC1C[N+]2(Cc3cccc(C)c3)CCC1CC2C(O)c1ccnc2ccccc12 (stereo not shown) [CD-(mCH3), N-(3-methylbenzyl) cinchonidinium bromide] | – | 3 ± 0.3 | 77 ± 6 | 0.52 ± 0.08 | 39 | m | 0.63 ± 0.14 | m | – | 16 | ≤ 100 | – | – | – | – |
| C=CC1C[N+]2(Cc3cccc(Cl)c3)CCC1CC2C(O)c1ccnc2ccccc12 (stereo not shown) [CD-(mCl), N-(3-chlorobenzyl) cinchonidinium chloride] | – | 23 ± 1 | 240 ± 10 | 0.53 ± 0.05 | 95 | m | 0.74 ± 0.08 | c | – | – | – | – | – | – | – |
| C=CC1C[N+]2(Cc3cccc([N+](=O)[O-])c3)CCC1CC2C(O)c1ccnc2ccccc12 (stereo not shown) [CD-(mNO2), N-(3-nitrobenzyl) cinchonidinium bromide] | – | 2.5 ± 0.2 | 4700 ± 400 | 0.62 ± 0.1 | – | m | 1.0 ± 0.2 | c | only five times higher | – | – | – | – | – | – |
| C=CC1C[N+]2(Cc3ccc(Br)cc3)CCC1CC2C(O)c1ccnc2ccccc12 (stereo not shown) [CD-(pBr), N-para-bromobenzyl cinchonidinium bromide] | – | 19 ± 1 | 38 ± 5 | 0.34 ± 0.07 | 510 | c | 2.2 ± 0.524 | m | 700 times | – | ≤ 100 | 16 | 92 | – | – |
| C=CC1C[N+]2(Cc3ccc(C)cc3)CCC1CC2C(O)c1ccnc2ccccc12 (stereo not shown) [CD-(pCH3)] | – | 16 ± 1 | 170 ± 20 | 0.38 ± 0.06 | 99 | m | 1.3 ± 0.2 | c | – | – | – | – | – | mixed inhibition | – |
| C=CC1C[N+]2(Cc3ccc(Cl)cc3)CCC1CC2C(O)c1ccnc2ccccc12 (stereo not shown) [CD-(pCl)] | – | 37 ± 4 | 100 ± 10 | 0.42 ± 0.05 | 350 | c | – | n | – | – | ≤ 100 | – | – | – | – |
| C=CC1C[N+]2(Cc3ccc([N+](=O)[O-])cc3)CCC1CC2C(O)c1ccnc2ccccc12 (stereo not shown) [CD-(pNO2)] | – | 36 ± 2 | 6000 ± 500 | 0.38 ± 0.05 | 5.9 | c | – | n | only five times higher | – | – | – | – | – | – |
| C=CC1C[N+]2(Cc3ccccc3)CCC1CC2C(O)c1ccnc2ccccc12 (stereo not shown) [CD-Bzl] | – | 15 ± 2 | 75 ± 7 | 0.27 ± 0.03 | 200 | c | 0.78 ± 0.3 | m | – | – | ≤ 100 | – | – | – | – |
| C=CC1C[N+]2(C)CCC1CC2C(O)c1ccnc2ccccc12 (stereo not shown) [CD-Met] | – | 67 ± 6 | 26000 ± 4000 | 0.70 ± 0.22 | – | c | 0.70 ± 0.17 | c | – | – | – | – | – | – | approximately 730 times |

— publication PMC6173406, “Design and evaluation of selective butyrylcholinesterase inhibitors based on Cinchona alkaloid scaffold” (PLoS ONE, 2018)
